Reference: patent US20070128217A1 (priority 2003, published 2007)

Experiments:
[1] = tested on: antibodies in sera from SARS patients (sera 1a, 1b, 2, 6, 37, 62, London, SARS-yellow, SARS-green); assay type: binding, human; set-up: Binding of serum 6 to linear peptides of protein X1 of SARS-CoV Urbani / Binding of serum 37 to linear peptides of protein X1 of SARS-CoV Urbani / Binding of serum 6 to looped/cyclic peptide (PEPSCAN-ELISA) / Binding of serum 37 to looped/cyclic peptide (PEPSCAN-ELISA) / Binding of serum 37 to looped/cyclic peptides of protein X1 of SARS-CoV Urbani / Binding of serum 6 to linear peptides of protein X2 / Binding of serum 37 to linear peptides of protein X2 / Binding of serum 37 to looped/cyclic peptides of protein X2 of SARS-CoV Urbani / Binding of serum 6 to linear peptides of protein M of SARS-CoV Urbani / Binding of serum 37 to linear peptides of protein M of SARS-CoV Urbani / Binding of serum 6 to looped/cyclic peptides of protein M of SARS-CoV Urbani / Binding of serum 37 to looped/cyclic peptides of protein M of SARS-CoV Urbani / Binding of serum 6 to linear peptides of protein X3 of SARS-CoV Urbani / Binding of serum 37 to linear peptides of protein X3 of SARS-CoV Urbani / Binding of serum 37 to looped/cyclic peptides of protein X3 of SARS-CoV Urbani / Binding of serum 6 to linear peptides of protein X4 of SARS-CoV Urbani / Binding of serum 37 to linear peptides of protein X4 of SARS-CoV Urbani / Binding of serum 37 to looped/cyclic peptides of protein X4 of SARS-CoV Urbani / Binding of serum 6 to linear peptides of protein X5 of SARS-CoV Urbani / Binding of serum 37 to linear peptides of protein X5 of SARS-CoV Urbani / Binding of serum 37 to looped/cyclic peptides of protein X5 of SARS-CoV Urbani / Binding of serum 6 to linear peptides of protein N of SARS-CoV Urbani / Binding of serum 37 to linear peptides of protein N of SARS-CoV Urbani / Binding of serum 6 to linear peptide (PEPSCAN-ELISA) / Binding of serum 1a to looped/cyclic peptides of protein N of SARS-CoV Urbani / Binding of serum 1b to looped/cyclic peptides of protein N of SARS-CoV Urbani / Binding of serum 2 to looped/cyclic peptides of protein N of SARS-CoV Urbani / Binding of serum 6 to looped/cyclic peptides of protein N of SARS-CoV Urbani / Binding of serum 37 to looped/cyclic peptides of protein N of SARS-CoV Urbani / Binding of serum 62 to looped/cyclic peptides of protein N of SARS-CoV Urbani / Binding of serum London to looped/cyclic peptides of protein N of SARS-CoV Urbani / Binding of serum SARS-green to looped/cyclic peptides of protein N of SARS-CoV Urbani: unit not given here
[2] = tested on: control sera (pooled serum of ten healthy LUMC hospital workers; commercial negative donor pooled serum from the Dutch bloodbank); assay type: binding, human; set-up: Binding of Control serum LUMC to linear peptides / Binding of Control serum Blood-bank to linear peptides / Binding of Control serum LUMC to looped peptides / Binding of Control Serum Blood-Bank to Looped peptides / Binding of Control serum LUMC to linear peptides of the protein M of SARS-CoV Urbani / Binding of Control serum Blood-bank to linear peptides of the protein M of SARS-CoV Urbani / Binding of Control serum LUMC to looped peptides of the protein M of SARS-CoV Urbani / Binding of Control Serum Blood-Bank to Looped peptides of the protein M of SARS-CoV Urbani: unit not given here
[3] = tested on: rabbit serum obtained by immunizing a rabbit with the SARS-CoV strain Frankfurt 1; assay type: binding; set-up: Binding of a rabbit serum to linear peptides / Binding of a rabbit serum to looped peptides / Rabbit serum linear peptides / Rabbit serum looped peptides / Binding of a rabbit serum to linear peptides of protein N of SARS-CoV Urbani (Rabbit serum linear peptides) / Binding of a rabbit serum to looped/cyclic peptides of protein N of SARS-CoV Urbani (Rabbit serum looped peptides): unit not given here

## LESTQITTDTGIENA
[1]
  Binding of serum 1a to linear peptides of protein X1 of SARS-CoV Urbani: 0.6
  Binding of serum 1a to looped/cyclic peptides of protein X1 of SARS-CoV Urbani: 0.4
  Binding of serum 1b to linear peptides of protein X1 of SARS-CoV Urbani: 0.5
  Binding of serum 1b to looped/cyclic peptides of protein X1 of SARS-CoV Urbani: 0.3
  Binding of serum 2 to linear peptides of protein X1 of SARS-CoV Urbani: 0.4
  Binding of serum 2 to looped/cyclic peptides of protein X1 of SARS-CoV Urbani: 0.2
  Binding of serum 6 to linear peptides of protein X1 of SARS-CoV Urbani: 0.4
  Binding of serum 6 to looped/cyclic peptides of protein X1 of SARS-CoV Urbani: 0.2
  Binding of serum 37 to linear peptides of protein X1 of SARS-CoV Urbani: 0.5
  Binding of serum 37 to looped/cyclic peptides of protein X1 of SARS-CoV Urbani: 0.3
  Binding of serum 62 to linear peptides of protein X1 of SARS-CoV Urbani: 0.4
  Binding of serum 62 to looped/cyclic peptides of protein X1 of SARS-CoV Urbani: 0.4
  Binding of serum London to linear peptides of protein X1 of SARS-CoV Urbani: 0.2
  Binding of serum London to looped/cyclic peptides of protein X1 of SARS-CoV Urbani: 0.2
  Binding of serum SARS-green to linear peptides of protein X1 of SARS-CoV Urbani: 0.1
  Binding of serum SARS-green to looped/cyclic peptides of protein X1 of SARS-CoV Urbani: 0.2
  Binding of serum SARS-yellow to linear peptides of protein X1 of SARS-CoV Urbani: 0.2
  Binding of serum SARS-yellow to looped/cyclic peptides of protein X1 of SARS-CoV Urbani: 0.3
[2]
  Binding of Control Serum Blood-Bank to Looped peptides: 0.4
  Binding of Control serum Blood-bank to linear peptides: 0.3
  Binding of Control serum LUMC to linear peptides: 0.4
  Binding of Control serum LUMC to looped peptides: 0.4
[3]
  Binding of a rabbit serum to linear peptides: 0.1
  Binding of a rabbit serum to looped peptides: 0.5

## LFARTRSMWSFNPET
[1]
  Binding of serum 1a to linear peptides of protein M of SARS-CoV Urbani: 0.8
  Binding of serum 1a to looped/cyclic peptides of protein M of SARS-CoV Urbani: 0.7
  Binding of serum 1b to linear peptides of protein M of SARS-CoV Urbani: 0.7
  Binding of serum 1b to looped/cyclic peptides of protein M of SARS-CoV Urbani: 0.5
  Binding of serum 2 to linear peptides of protein M of SARS-CoV Urbani: 0.5
  Binding of serum 2 to looped/cyclic peptides of protein M of SARS-CoV Urbani: 0.6
  Binding of serum 6 to linear peptides of protein M of SARS-CoV Urbani: 0.6
  Binding of serum 6 to looped/cyclic peptides of protein M of SARS-CoV Urbani: 0.5
  Binding of serum 37 to linear peptides of protein M of SARS-CoV Urbani: 0.5
  Binding of serum 37 to looped/cyclic peptides of protein M of SARS-CoV Urbani: 0.7
  Binding of serum 62 to linear peptides of protein M of SARS-CoV Urbani: 0.5
  Binding of serum 62 to looped/cyclic peptides of protein M of SARS-CoV Urbani: 0.6
  Binding of serum London to linear peptides of protein M of SARS-CoV Urbani: 0.4
  Binding of serum London to looped/cyclic peptides of protein M of SARS-CoV Urbani: 0.2
  Binding of serum SARS-green to linear peptides of protein M of SARS-CoV Urbani: 0.5
  Binding of serum SARS-green to looped/cyclic peptides of protein M of SARS-CoV Urbani: 0.3
  Binding of serum SARS-yellow to linear peptides of protein M of SARS-CoV Urbani: 0.2
  Binding of serum SARS-yellow to looped/cyclic peptides of protein M of SARS-CoV Urbani: 0.7
[2]
  Binding of Control Serum Blood-Bank to Looped peptides of the protein M of SARS-CoV Urbani: 0.6
  Binding of Control serum Blood-bank to linear peptides of the protein M of SARS-CoV Urbani: 0.7
  Binding of Control serum LUMC to linear peptides of the protein M of SARS-CoV Urbani: 0.8
  Binding of Control serum LUMC to looped peptides of the protein M of SARS-CoV Urbani: 0.6
[3]
  Rabbit serum linear peptides: 0.1
  Rabbit serum looped peptides: 0.3

## LFLAWIMLLQFAYSN
[1]
  Binding of serum 1a to linear peptides of protein M of SARS-CoV Urbani: 0.7
  Binding of serum 1a to looped/cyclic peptides of protein M of SARS-CoV Urbani: 0.8
  Binding of serum 1b to linear peptides of protein M of SARS-CoV Urbani: 0.5
  Binding of serum 1b to looped/cyclic peptides of protein M of SARS-CoV Urbani: 0.6
  Binding of serum 2 to linear peptides of protein M of SARS-CoV Urbani: 0.3
  Binding of serum 2 to looped/cyclic peptides of protein M of SARS-CoV Urbani: 0.6
  Binding of serum 6 to linear peptides of protein M of SARS-CoV Urbani: 0.3
  Binding of serum 6 to looped/cyclic peptides of protein M of SARS-CoV Urbani: 0.7
  Binding of serum 37 to linear peptides of protein M of SARS-CoV Urbani: 0.6
  Binding of serum 37 to looped/cyclic peptides of protein M of SARS-CoV Urbani: 0.7
  Binding of serum 62 to linear peptides of protein M of SARS-CoV Urbani: 0.7
  Binding of serum 62 to looped/cyclic peptides of protein M of SARS-CoV Urbani: 0.7
  Binding of serum London to linear peptides of protein M of SARS-CoV Urbani: 0.2
  Binding of serum London to looped/cyclic peptides of protein M of SARS-CoV Urbani: 0.3
  Binding of serum SARS-green to linear peptides of protein M of SARS-CoV Urbani: 0.2
  Binding of serum SARS-green to looped/cyclic peptides of protein M of SARS-CoV Urbani: 0.3
  Binding of serum SARS-yellow to linear peptides of protein M of SARS-CoV Urbani: 0.0
  Binding of serum SARS-yellow to looped/cyclic peptides of protein M of SARS-CoV Urbani: 0.6
[2]
  Binding of Control Serum Blood-Bank to Looped peptides of the protein M of SARS-CoV Urbani: 0.7
  Binding of Control serum Blood-bank to linear peptides of the protein M of SARS-CoV Urbani: 0.5
  Binding of Control serum LUMC to linear peptides of the protein M of SARS-CoV Urbani: 0.2
  Binding of Control serum LUMC to looped peptides of the protein M of SARS-CoV Urbani: 0.6
[3]
  Rabbit serum linear peptides: 0.7
  Rabbit serum looped peptides: 0.3
